Measured values taken from patent US10464901B2, “Composition including benzene diamine derivative for preventing or treating degenerative brain diseases” (UNIST(ULSAN NATIONAL INSTITUTE OF SCIENCE AND TECHNOLOGY), priority 2017, dated 2019).

What was measured:
Aβ aggregates = test: Brain tissue staining of Aβ aggregates with Thioflavin T; format: in vivo, mouse; settings: oral 100 μg/kg twice a week for 2 months, confocal, FIG. 9
Method: Like oligomeric Aβ, Aβ aggregates in the brain tissue may cause neuronal cell death by neuronal cytotoxicity, which may cause dementia. Therefore, anatomical analysis of the brain tissue was performed to examine whether the benzene diamine derivatives of the present disclosure inhibit neuronal cytotoxicity by Aβ aggregates in dementia mouse models.
In detail, as in Experimental Example 7-1, the dementia mouse models were prepared and their brain tissues were stained. Aβ aggregates in the brain tissue were labeled with Thioflavin T (ThT, Sigma-Aldrich) (green fluorescence), plaques were stained with a fluorescent staining reagent MX04 (blue), and incubated at 4° C. for 12 hours. Thereafter, the tissues were observed under a confocal microscope at 0.5×10.

[1] = tested on: APP/PS/Tau dementia mouse model; test: Morphological change of brain of dementia mouse model; format: in vivo; settings: oral 100 μg/kg twice a week for 2 months, FIG. 6
Description: In order to examine therapeutic effects of the benzene diamine derivatives on dementia, dementia mouse models were orally administered with the benzene diamine derivative, and morphological changes in the brains thereof were examined.
In detail, APP/PS/Tau was purchased as the dementia mouse model from Jackson lab (BAR HARBOR, USA), and APP/Tau female and APP/PSen1de9 purchased from Taconic (Hudson, USA) were cross-mated for 6 generations, and 4-month-old mouse models were obtained from F1. The dementia mouse models were divided into groups of 6 mice, and among the dementia mouse models, a control group was orally administered with a vehicle (PBS) for 2 months, and an experimental group was orally administered with 100 μg/kg/0.1 ml of N^1-(pyridin-2-ylmethyl)benzene-1,4-diamine (Compound 2) twice a week for 2 months. Thereafter, the mice were sacrificed, and their brains were removed. Their longitudinal sections were cut, and morphological changes were examined. For comparison, a normal mouse was sacrificed and its brain was removed. Its longitudinal section was cut, and morphological changes were examined.

Cu(II)-Aβ = test: Aβ aggregation inhibition, gel electrophoresis and Western blotting with anti-Aβ antibody (6E10); format: biochemical
Description: It was examined whether the benzene diamine derivatives of the present disclosure have inhibitory effects on Aβ aggregation. Aβ has two isoforms, and therefore, effects on Aβ40 and Aβ42 were examined, respectively. When metals are involved in protein folding, the probability of abnormal folding is high. In this case, the probability of Aβ aggregate formation is further increased.
In order to perform molecular analysis of Aβ aggregation-inhibitory effects of the benzene diamine derivatives of the present disclosure, gel electrophoresis and Western blotting were performed by using anti-Aβ antibody (6E10). As a control group, compound 1
In detail, each sample (10 μl) was separated on a 10-20% Tris-tricine gel (Invitrogen, Grand Island, N.Y., USA). After separation, the proteins were transferred onto a nitrocellulose membrane and blocked with bovine serum albumin (BSA, 3% w/v, Sigma-Aldrich, St Louis, Mo., USA) in Tris-buffered saline (TBS) containing 0.1% Tween-20 (TBS-T) at room temperature for 2 hours or at 4° C. overnight. The membrane was incubated in a 2% BSA (w/v in TBS-T) solution, together with anti-Aβ antibody (6E10, 1:2,000, Covance, Princeton, N.J., USA), at room temperature for 4 hours or at 4° C. overnight. The membrane was washed with TBS-T (3×, 10 min), and a secondary mouse antibody (1:5,000 in 2% BSA w/v in TBS-T; Cayman Chemical Company, Ann Arbor, Mich., USA) was added thereto, followed by incubation at room temperature for 1 hour. Thermo Scientific SuperSignal West Pico Chemiluminescent Substrate (Thermo Scientific, Rockford, Ill., USA), Biosesang ECL Plus kit (Biosesang, Gyeonggi-do, Republic of Korea), or homemade ECL kit53 were used for visualization, and ChemiDoc MP Imaging System (Bio-Rad, Hercules, Calif., USA) was used for detection.

oligomeric Aβ42 = biological target: T1, oligomeric Aβ42 (Homo sapiens, UniProt P05067); test: Brain tissue immunohistofluorescence, oligomeric Aβ; format: in vivo, mouse; settings: oral 100 μg/kg twice a week for 2 months, confocal, FIG. 8
T1 construct: from tissue; host or cells: brain of dementia mouse models
T1 sequence (P05067 672-713 limits assumed): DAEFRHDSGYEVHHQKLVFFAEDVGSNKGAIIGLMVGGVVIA
Method: Oligomeric Aβ formation in the brain tissue may cause neuronal cell death by neuronal cytotoxicity, which may cause dementia. Therefore, anatomical analysis of the brain tissue was performed to examine whether the benzene diamine derivatives of the present disclosure inhibit neuronal cytotoxicity by oligomeric Aβ in dementia mouse models.
In detail, as in Experimental Example 7-1, the dementia mouse models were prepared and their brain tissues were stained. Anti-oligomeric Aβ primary antibody (ab126892, Abcam, Eugene, USA) labeled with QD525 probe (red fluorescence) was used to examine changes in the quantity of oligomeric Aβ42. Further, to measure changes of plaques, the tissues were stained with a fluorescent staining reagent MX04 (blue) and incubated at 4° C. for 12 hours. Thereafter, the tissues were observed under a confocal microscope at 0.5×10.

oligomeric Aβ in brain (oligomeric Aβ42): oligomeric Aβ was hardly observed
SMILES: Nc1ccc(NCc2ccccn2)cc1 [Compound 2, N^1-(pyridin-2-ylmethyl)benzene-1,4-diamine]
Aβ aggregates (ThT) in brain (Aβ aggregates): Aβ aggregates were hardly observed | brain morphology / longitudinal section [1]: brain morphology similar to that of the normal group | Cu(II)-Aβ (inhibitory effect on Aβ aggregation) (Cu(II)-Aβ; Table 1 summary of Example 2, symbols not defined): ◯ | Cu(II)-Aβ-inhibitory effect (Cu(II)-Aβ; two kinds of Aβ, FIG. 1): very excellent Cu(II)-Aβ-inhibitory effect on two kinds of Aβ
